From paper PMC6774072, “Azologization and repurposing of a hetero-stilbene-based kinase inhibitor: towards the design of photoswitchable sirtuin inhibitors” (Beilstein Journal of Organic Chemistry, 2019)
Where two headings read alike, the source gives them in different places.

Legend:
Test in all cases: fluorescence-based deacetylase assay with Z-Lys(acetyl)-AMC (ZMAL) substrate
Type in all cases: biochemical
Sirt3 = molecular target: T1, Sirt3 (Homo sapiens, UniProt Q9NTG7); details: read-out: Sirt3 inhibition IC50
T1 construct: Sirt3_118−395; made in house
T1 sequence (Q9NTG7 118-395): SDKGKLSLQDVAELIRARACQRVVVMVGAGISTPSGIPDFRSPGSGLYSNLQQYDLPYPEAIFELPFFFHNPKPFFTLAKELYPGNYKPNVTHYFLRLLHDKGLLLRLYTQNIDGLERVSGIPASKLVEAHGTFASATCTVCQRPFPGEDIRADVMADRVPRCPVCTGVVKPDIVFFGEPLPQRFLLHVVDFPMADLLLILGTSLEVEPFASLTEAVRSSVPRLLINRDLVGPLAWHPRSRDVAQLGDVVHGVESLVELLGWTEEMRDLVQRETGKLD
Procedure: (§1) The influence on deacetylase activity of three human sirtuin isoforms (Sirt1–3) was determined in a fluorescence-based assay, using Z-Lys(acetyl)-AMC (ZMAL) as a substrate. Compared to the lead structure 2a, all compounds except 2e–h show increased inhibitory activity against Sirt2 (Table 1). […] Moreover, a slight increase in selectivity for Sirt2 and Sirt3 over Sirt1 could be observed for 2c, 4a and 4b. […] Though not photoswitchable, compounds 4a and 4b were synthesized to test the influence of a rigid conformation around the C=C double bond on sirtuin inhibition. […] A recently developed fluorescence polarization (FP)-based assay enables mapping of ligand binding to this specific binding site. For 2a an interaction with the selectivity pocket was already implied in the same work. Additionally performed docking studies proposed a binding mode in which 2a mimics the nicotinamide residue of NAD^+, whereas aromatic amino acid residues of the selectivity pocket stabilize the dimethylphenol ring. As photoisomerization in stilbenes and azo dyes is accompanied by a perpendicular twist of the phenyl ring towards the former molecular plane, we assumed that this conformational change should provoke a differential binding situation at least for the dimethylphenol residue in 2a. Unfortunately, binding of 2b and c could not be localised in the vicinity of the selectivity pocket of Sirt2, so that the binding pose remains unclear.
(§2) The photoswitchable diazeno compound 11 was subjected to biological evaluation to test the effect of photoisomerization on the inhibitory activity. The enzyme assay mixture containing 11 was exposed to 5 minutes of 365 nm radiation and compared with the results of a non-irradiated measurement. […] Unfortunately, 365 nm radiation turned out to have only minor effects on the IC50 values of 11 (Table 3).
(§3) Cloning, expression and purification of recombinant proteins: Expression and purification of Sirt1_133-747, Sirt2_56−356, and Sirt3_118−395 was carried out as described previously. Identity and purity were verified by SDS-PAGE [65]. Protein concentration was determined by the Bradford assay.
(§4) Bioassay: The inhibitory effect of compounds 2a–h, 4a/b, 8a and 11 on Sirt1–3 was detected via a previously reported fluorescence based assay. The synthetic substrate Z-Lys(acetyl)-AMC (ZMAL) is deacetylated by sirtuins, followed by tryptic digestion and thereby release of […], leading to a fluorescent readout. Inhibition was determined by comparing percentage substrate conversion to a DMSO control after subtraction of the blank fluorescence signal. All compounds were tested at 100 µM, 50 µM and 10 µM, respectively. […] IC50 values were calculated with OriginPro 9.0 G using a non-linear regression to fit the dose response curve. An enzyme-free blank control and a 100% conversion control using AMC instead of ZMAL were measured as well. Inhibition measurements were performed in biological duplicates for all compounds.

Sirt2 = molecular target: T2, Sirt2 (Homo sapiens, UniProt Q8IXJ6); details: read-out: Sirt2 inhibition IC50
T2 construct: Sirt2_56−356; made in house
T2 sequence (Q8IXJ6 56-356): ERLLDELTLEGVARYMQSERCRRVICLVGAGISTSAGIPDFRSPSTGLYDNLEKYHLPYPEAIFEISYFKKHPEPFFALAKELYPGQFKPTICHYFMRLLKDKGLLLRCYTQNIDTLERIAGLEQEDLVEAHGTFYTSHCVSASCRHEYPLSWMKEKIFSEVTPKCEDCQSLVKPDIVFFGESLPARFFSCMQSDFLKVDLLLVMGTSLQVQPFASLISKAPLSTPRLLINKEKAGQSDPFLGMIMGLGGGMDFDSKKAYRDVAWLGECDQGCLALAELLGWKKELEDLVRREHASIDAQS
Procedure: as §1, §2, §3, §4

Sirt1 = molecular target: T3, Sirt1 (Homo sapiens, UniProt Q96EB6); details: @ 100 µM
T3 construct: Expression and purification of Sirt1_133-747; made in house
T3 sequence (Q96EB6 133-747): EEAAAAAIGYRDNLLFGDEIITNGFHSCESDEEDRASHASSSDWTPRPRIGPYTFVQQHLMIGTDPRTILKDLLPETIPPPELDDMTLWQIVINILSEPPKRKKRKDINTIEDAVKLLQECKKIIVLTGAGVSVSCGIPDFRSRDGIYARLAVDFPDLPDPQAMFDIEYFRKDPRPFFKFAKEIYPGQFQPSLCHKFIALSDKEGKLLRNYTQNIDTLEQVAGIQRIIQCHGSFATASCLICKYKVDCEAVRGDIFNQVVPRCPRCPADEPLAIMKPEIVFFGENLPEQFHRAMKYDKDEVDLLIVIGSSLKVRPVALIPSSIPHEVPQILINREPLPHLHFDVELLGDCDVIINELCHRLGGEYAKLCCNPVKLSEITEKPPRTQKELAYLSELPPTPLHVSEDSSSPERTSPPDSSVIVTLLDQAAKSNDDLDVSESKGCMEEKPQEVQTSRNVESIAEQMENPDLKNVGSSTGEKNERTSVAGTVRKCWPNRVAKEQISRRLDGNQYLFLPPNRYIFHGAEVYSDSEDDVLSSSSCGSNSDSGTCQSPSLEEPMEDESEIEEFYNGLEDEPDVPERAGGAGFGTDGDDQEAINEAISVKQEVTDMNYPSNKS
Procedure: as §1, §2, §3, §4

[1] = photostationary state (PSS) after 5 minutes of 365 nm irradiation
[2] = thermal equilibrium (∆), non-irradiated

## NC(=O)c1cncc(N=Nc2ccc(F)cc2)c1 [Compound 11, 5-[(4-Fluorophenyl)diazenyl]nicotinamide]
Sirt3; [1]
  IC50: 29.9 ± 2.11 µM
Sirt3; [2]
  IC50: 27.5 ± 3.42 µM
Sirt2; [1]
  IC50: 24.1 ± 1.69 µM
Sirt2; [2]
  IC50: 18.9 ± 1.38 µM
Sirt1; [1]
  inhibition at 100 µM: 19%
Sirt1; [2]
  inhibition at 100 µM: 35%
